Patent US20250144187A1, “COMBINATION OF HYDROLASES AND ANTI-MICROORGANISM DRUGS AND USES THEREOF” (CENTRE FOR EYE AND VISION RESEARCH LIMITED, priority 2023, published 2025)

Legend:
[1] = tested on: MRSA; test: HADA-based synthesis of nascent cell wall; design: species or system Staphylococcus aureus; settings: cefdinir alone or combination with lysozyme, 2 hours
Description: 8) Synthesis and digestion of cell wait. According to the reported method [Kuru E et al., ACS Chem Biol 14, 2745-2756 (2019)], over-night cultured MRSA was inoculated into LB medium and cultured at 37° C. with shaking at 250 rpm until when its OD600 reached 0.6. Then, these mid-log-phase MRSA was treated with cefdinir (0.5 μg/ml), lysozyme (0.5 mg/ml) alone or their combination. Those treated with mezlocillin (1.0 μg/ml) and without any treatment served as antibiotic-control and untreated group, respectively. Meanwhile, MRSA suspension in control group was further divided into two groups. i.e., control group and no drug group, Next, 10 μM HCC-Amino-D-alanine (HADA) was added into all samples except those in no drug group, in which HADA was replaced by PBS. After 2- or 4-hour incubation, all bacteria were collected by centrifugation at 3220 g for 10 minutes and then washed by cold PBS for 3 times to remove redundant HADA.

[2] = tested on: MRSE; test: High-throughput screening of 1953 FDA-approved compounds with human lysozyme; type: cell-based, Staphylococcus epidermis; settings: compound 25 μM + 1 mg/ml lysozyme, 24-hour
Description: 1) High-throughput screening. According to standard screening method [Zhong. […] Commun. 11, 523 (2020)], 1953 FDA-approved compounds from our drugs library at a fixed concentrations of 25 μM were screened against methicillin-resistant Staphylococcus aureus (MRSA) and Staphylococcus epidermis (a coagulase negative Staphylococci, MRSE), in combination with human lysozyme. Specifically, these compounds were added into bacterial suspensions (1×10^5 CFU/ml, in LB medium) in the absence or presence of 1 mg/ml lysozyme. LB medium without bacteria served as background group. Then, the real-time growth curvet of MRSA were monitored per hour and for 24 hours. Absorbance at 600 am (OD600) of bacterial culture at the time point of 24-hour was also measured. The inhibition ratio (%) was calculated as (ODcontrol−ODsample)/(ODcontrol−ODbackground)×100%. […] Herein, the relative and apparent inhibition ratios indicated the combination effect and potential toxicity of compound, respectively. Synergy effect was defined as the relative inhibition ratio of ≥90%. All assays were performed in triplicate.

[3] = tested on: MRSA in ARPE-19 cells; test: Cell-based infection model, cefdinir/lysozyme; settings: 0.25 μg/ml cefdinir combined with 0.5 mg/ml lysozyme
[4] = tested on: MRSA; test: Check board broth micro-dilution assay, tedizolid phosphate with lysozyme; type: cell-based, Staphylococcus aureus; settings: for FICI: tedizolid phosphate + lysozyme
Description: (§1) 2) Check board broth micro-dilution assays. According to standard two-fold dilution method [Sun. H et al., Nat. Commun. 11, 5263 (2020) tedizolid phosphate at different concentrations were added into fresh LB medium (or trypticase soy troth medium with 5% defibrinated horse blood) containing different concentrations of human lysozyme in 96-well plate. Then, 20 μl of 1.0×10^7 CFU/ml logarithmic cultures of MRSA or MRSE were added into each well of the plate and co-incubated overnight. Drug-free LB medium in the absence or presence of bacteria served as background control and growth control group, respectively. […] Thus, there would be a series of FICI values. In most of cases, the lowest one among these values was listed to reflect the best achieving degree of combination therapy. In terms of the lowest FICI, FICI≤0.5, 0.5<FICI<1 or FICI≥1, would indicate the combination has synergy, part synergy or non-synergy effects, respectively.

[5] = tested on: MRSE; test: as above; type: cell-based, Staphylococcus epidermis; settings: tedizolid phosphate and lysozyme
Description: as §1

[6] = tested on: MRSE; test: Time-killing curves, tedizolid phosphate/lysozyme; type: cell-based, Staphylococcus epidermis; settings: tedizolid phosphate + 0.5 mg/ml lysozyme, after 22 hours; dropping from the level of 10^12
[7] = tested on: MRSA; test: Mutation frequency and prevention concentration analysis, tedizolid phosphate/lysozyme
[8] = tested on: MRSE; test: as above

Row | Compound | reduction in HADA signal intensity from nascent cell wall [1] [%] | Growth inhibition ratio (mean ± SD, %) MRSE [2] [%] | drop of bacterial load in infected ARPE-19 cells [3] | bacterial load in infected ARPE-19 cells ([3]; MOI 50) | FICI ([4]; absence of urea-cycle inhibitors) | FICI ([4]; cultures of both inhibitors) | FICI ([4]; presence of BB-Cl-Amidine or acetohydroxamic acid) | fractional inhibitory concentration index (FICI) ([4]; tedizolid phosphate and lysozyme) | fractional inhibitory concentration index (FICI) [5] | bacterial load per ml culture [6] | mutation frequencies ([7]; combination with lysozyme) | prevention concentrations of tedizolid phosphate ([7]; combination with lysozyme) [µg/mL] | mutation frequencies ([7]; without combination therapy) | prevention concentrations of tedizolid phosphate ([7]; without lysozyme) [µg/mL] | mutation frequencies ([8]; combination with lysozyme) | prevention concentrations of tedizolid phosphate ([8]; combination with lysozyme) [µg/mL] | mutation frequencies ([8]; without combination therapy) | prevention concentrations of tedizolid phosphate ([8]; without lysozyme) [µg/mL]
1 | C=CC1=C(C(=O)O)N2C(=O)[C@@H](NC(=O)/C(=N\O)c3csc(N)n3)[C@H]2SC1 [cefdinir, Cefdinir] | ~40 | 20.31 ± 13.83 | 10^2 fold | 10^3 CFU/ml |  |  |  |  |  |  |  |  |  |  |  |  |  | 
2 | Cn1nnc(-c2ccc(-c3ccc(N4C[C@H](COP(=O)(O)O)OC4=O)cc3F)cn2)n1 [tedizolid phosphate, Tedizolid Phosphate] |  |  |  |  | 0.015 | up to 0.25 | 0.1 | < 0.023 | < 0.023 | 10^6 colony forming units (CFUs) | 2×10^−9 | ≤ 1 | ≥ 5×10^−7 | > 50 | 2×10^−9 | ≤ 1 | ≥ 5×10^−7 | > 50
